Data: patent US20250353891A1 (MEDIMMUNE LIMITED, priority 2022, published 2025)
Starred links: 1 amine or outer side, 2 acyl side, 3 side chain; linkers in the order of their positions; H or OH if unused. Non-standard residues stand in square brackets, D forms with d. Residues, ends and D or L forms follow the SMILES beside them. Groups on a side chain read outwards from the residue. *: point of attachment. C18 diacid = O=C(O)CCCCCCCCCCCCCCCCC(=O)*; γGlu = O=C(O)[C@H](CCC(=O)[*:2])N[*:1]; αMeF = C[C@](N)(Cc1ccccc1)C(=O)O; PEG4 = NCCOCCOCCOCCOCCC(=O)O; AEEA = NCCOCCOCC(=O)O; Aib = CC(C)(N)C(=O)O

Legend:
[1] = target: human GLP-1 receptor (hGLP-1R) (Homo sapiens, UniProt P43220); experiment: cAMP production (HTRF) in CHO cells expressing hGLP-1R; format: cell-based; set-up: expressed in transfected cells; conditions: for EC50: Table 6, peptides modified at position 17, cAMP in CHO hGLP-1R cells, geometric mean, read-out: hGLP-1R EC50; for % Relative Potency Ratio: Table 6, % GLP-1R activity relative to GLP-1 / % GlucR activity relative to glucagon
Summary of the method: (§1)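 Potency values represent EC50 from 4-parameter logistic curves of HTRF % Delta F signal. Receptor-expressing CHO cells (hGCGR 2×10^5 cells/mL, hGLP-1R 1×10^5 cells/mL) were exposed for 30 min at room temperature before two-step cAMP detection.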

[2] = target: human glucagon receptor (hGCGR) (Homo sapiens, UniProt P47871); experiment: cAMP production (HTRF) in CHO cells expressing hGCGR; format: cell-based; set-up: expressed in transfected cells; conditions: Table 6, peptides modified at position 17; cAMP in CHO hGCGR cells; geometric mean; read-out: hGluc-R EC50
Summary of the method: as §1

Chain of human GLP-1 receptor (hGLP-1R) (P43220 24-463): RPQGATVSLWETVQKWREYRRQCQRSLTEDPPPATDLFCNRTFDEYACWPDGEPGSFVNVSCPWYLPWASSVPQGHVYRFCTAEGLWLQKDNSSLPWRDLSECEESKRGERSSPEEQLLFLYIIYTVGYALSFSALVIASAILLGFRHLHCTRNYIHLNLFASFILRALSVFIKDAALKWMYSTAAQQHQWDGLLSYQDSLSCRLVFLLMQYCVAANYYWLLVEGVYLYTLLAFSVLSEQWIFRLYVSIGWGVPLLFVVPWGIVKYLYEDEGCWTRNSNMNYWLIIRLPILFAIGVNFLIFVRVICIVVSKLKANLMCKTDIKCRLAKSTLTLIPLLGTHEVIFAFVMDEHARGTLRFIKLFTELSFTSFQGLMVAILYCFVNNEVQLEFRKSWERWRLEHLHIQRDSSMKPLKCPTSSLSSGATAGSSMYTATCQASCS
Chain of human glucagon receptor (hGCGR) (P47871 26-477): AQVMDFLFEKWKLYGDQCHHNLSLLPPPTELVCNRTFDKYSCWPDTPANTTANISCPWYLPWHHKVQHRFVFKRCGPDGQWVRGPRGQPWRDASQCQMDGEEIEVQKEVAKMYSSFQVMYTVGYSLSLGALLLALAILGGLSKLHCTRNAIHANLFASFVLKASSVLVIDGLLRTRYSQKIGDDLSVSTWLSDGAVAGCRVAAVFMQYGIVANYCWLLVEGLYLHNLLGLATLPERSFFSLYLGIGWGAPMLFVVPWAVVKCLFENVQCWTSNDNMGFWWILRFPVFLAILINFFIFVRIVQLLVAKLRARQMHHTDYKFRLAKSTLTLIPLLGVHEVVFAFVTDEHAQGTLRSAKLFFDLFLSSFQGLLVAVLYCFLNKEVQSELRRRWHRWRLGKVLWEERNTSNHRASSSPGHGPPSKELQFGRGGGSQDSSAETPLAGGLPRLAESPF

Compound	EC50 [1]	% Relative Potency Ratio [1]	EC50 [2]
CC(C)C[C@H](NC(=O)[C@H](Cc1c[nH]c2ccccc12)NC(=O)[C@H](CCC(N)=O)NC(=O)[C@@H](NC(=O)[C@H](Cc1ccccc1)NC(=O)[C@H](CC(=O)O)NC(=O)[C@H](CCC(N)=O)NC(=O)[C@H](C)NC(=O)[C@H](CCCNC(=N)N)NC(=O)[C@H](CCCCNC(=O)COCCOCCNC(=O)COCCOCCNC(=O)CC[C@H](NC(=O)CCCCCCCCCCCCCCCCC(=O)O)C(=O)O)NC(=O)[C@H](CO)NC(=O)[C@H](CC(=O)O)NC(=O)[C@H](CC(C)C)NC(=O)[C@](C)(Cc1ccccc1)NC(=O)[C@H](CCCCN)NC(=O)[C@H](CO)NC(=O)[C@@H](NC(=O)[C@H](CC(=O)O)NC(=O)[C@H](CO)NC(=O)[C@@H](NC(=O)[C@H](Cc1ccccc1)NC(=O)[C@@H](NC(=O)CNC(=O)[C@H](CCC(N)=O)NC(=O)C(C)(C)NC(=O)[C@@H](N)Cc1c[nH]cn1)[C@@H](C)O)[C@@H](C)O)C(C)C)C(C)C)C(=O)N[C@@H](CC(C)C)C(=O)NC(C)(C)C(=O)N[C@H](C(=O)O)[C@@H](C)O [Peptide 40] (H-H[Aib]QGTFTSDVSK[αMeF]LDSK([AEEA-AEEA-γGlu-C18 diacid])RAQDFVQWLL[Aib]T-OH; N-terminus assumed)	0.0299 nM	8.2	0.123 nM
CC(C)C[C@H](NC(=O)[C@H](Cc1c[nH]c2ccccc12)NC(=O)[C@H](CCC(N)=O)NC(=O)[C@@H](NC(=O)[C@H](Cc1ccccc1)NC(=O)[C@H](CC(=O)O)NC(=O)[C@H](CCC(N)=O)NC(=O)[C@H](C)NC(=O)[C@H](CCCNC(=N)N)NC(=O)[C@H](CCCCNC(=O)COCCOCCNC(=O)COCCOCCNC(=O)CC[C@H](NC(=O)CCCCCCCCCCCCCCCCC(=O)O)C(=O)O)NC(=O)[C@H](CO)NC(=O)[C@H](CC(=O)O)NC(=O)[C@H](CC(C)C)NC(=O)[C@](C)(Cc1ccccc1)NC(=O)[C@H](CCCCN)NC(=O)[C@H](CO)NC(=O)[C@H](Cc1ccc(O)cc1)NC(=O)[C@H](CC(=O)O)NC(=O)[C@H](CO)NC(=O)[C@@H](NC(=O)[C@H](Cc1ccccc1)NC(=O)[C@@H](NC(=O)CNC(=O)[C@H](CCC(N)=O)NC(=O)C(C)(C)NC(=O)[C@@H](N)Cc1c[nH]cn1)[C@@H](C)O)[C@@H](C)O)C(C)C)C(=O)N[C@H](C(=O)NCCOCCOCCOCCOCCC(N)=O)C(C)C [Peptide 41] (H-H[Aib]QGTFTSDYSK[αMeF]LDSK([AEEA-AEEA-γGlu-C18 diacid])RAQDFVQWLV[PEG4]-NH2; N-terminus assumed)	0.663 nM	17.1	5.74 nM
CC(C)C[C@H](NC(=O)C(C)(C)NC(=O)[C@H](CCC(N)=O)NC(=O)[C@@H](NC(=O)[C@H](Cc1ccccc1)NC(=O)[C@H](CC(=O)O)NC(=O)[C@H](CCC(N)=O)NC(=O)[C@H](C)NC(=O)[C@H](CCCNC(=N)N)NC(=O)[C@H](CCCCNC(=O)COCCOCCNC(=O)COCCOCCNC(=O)CC[C@H](NC(=O)CCCCCCCCCCCCCCCCC(=O)O)C(=O)O)NC(=O)[C@H](CO)NC(=O)[C@H](CC(=O)O)NC(=O)[C@H](CC(C)C)NC(=O)[C@](C)(Cc1ccccc1)NC(=O)[C@H](CCCCN)NC(=O)[C@H](CO)NC(=O)[C@@H](NC(=O)[C@H](CC(=O)O)NC(=O)[C@H](CO)NC(=O)[C@@H](NC(=O)[C@H](Cc1ccccc1)NC(=O)[C@@H](NC(=O)CNC(=O)[C@H](CCC(N)=O)NC(=O)C(C)(C)NC(=O)[C@@H](N)Cc1c[nH]cn1)[C@@H](C)O)[C@@H](C)O)C(C)C)C(C)C)C(=O)N[C@H](C(=O)N[C@@H](C)C(=O)N[C@H](C(=O)O)[C@@H](C)O)C(C)C [Peptide 42] (H-H[Aib]QGTFTSDVSK[αMeF]LDSK([AEEA-AEEA-γGlu-C18 diacid])RAQDFVQ[Aib]LVAT-OH; N-terminus assumed)	0.665 nM	24.4	8.19 nM
